# Measurements reported in the NIST ThermoML archive (doi:10.1016/j.jct.2005.06.003).
# ± gives the expanded uncertainty stated by the source.
# Conditions: Liquid, Closed cell (Static) method
SMILES,vapor or sublimation pressure (283.15 K) [kPa],vapor or sublimation pressure (288.15 K) [kPa],vapor or sublimation pressure (293.15 K) [kPa],vapor or sublimation pressure (298.15 K) [kPa],vapor or sublimation pressure (303.15 K) [kPa],vapor or sublimation pressure (308.15 K) [kPa],vapor or sublimation pressure (313.15 K) [kPa],vapor or sublimation pressure (318.15 K) [kPa],vapor or sublimation pressure (323.15 K) [kPa]
ClC(Cl)=C(Cl)Cl [tetrachloroethene],1.023 ± 0.022,1.4 ± 0.022,1.861 ± 0.022,2.462 ± 0.023,3.205 ± 0.023,4.117 ± 0.024,5.253 ± 0.025,6.621 ± 0.027,8.286 ± 0.028
"ClC(Cl)C(Cl)Cl [1,1,2,2-tetrachloroethane]",0.263 ± 0.02,0.373 ± 0.02,0.521 ± 0.021,0.711 ± 0.021,0.98 ± 0.022,1.289 ± 0.022,1.701 ± 0.022,2.236 ± 0.023,2.86 ± 0.023
C1CCOC1 [tetrahydrofuran],10.73 ± 0.032,13.67 ± 0.036,17.25 ± 0.041,21.6 ± 0.047,26.81 ± 0.054,32.94 ± 0.065,40.21 ± 0.077,48.68 ± 0.091,58.54 ± 0.11
